Results published in patent publication US11365175B2, “Aromatic amides having a fungicidal activity, their agronomic compositions and relative preparation method” (ISAGRO S.p.A., priority 2017, dated 2022).

How the values were obtained:
Format in all cases: in vivo
[1] = tested on: Helmintosporium teres; assay: Fungicidal activity against Helmintosporium teres on barley; conditions: barley cv. Gemini, scale 0 (plant completely infected) to 100 (healthy plant)
Procedure: Determination of the Fungicidal Activity of the Compounds Having Formula (I) Against Helmintosporium Teres on Barley
Leaves of barley plants (cultivar Gemini), grown in pots in a conditioned environment (20±1° C., 70% of R.H.), were treated by spraying both sides of the leaves with the compounds under examination, dispersed in a […] solution at 20% by volume of acetone.
After remaining 5 days in a conditioned environment, the plants were sprayed on both sides of the leaves with an aqueous suspension of conidia of Helmintosporium teres (50,000 conidia per cm^3 (adding Tween 20-1 drop/100 ml).
The plants were then kept in a controlled environment during the incubation period of the fungus (1 day wet room for infection, 3 days in a cell with R.H. 70% and […] for the incubation period, 3 days for wet room evasion, 12 days biological cycle).
At the end of this period (12 days), the fungicidal activity was evaluated according to an evaluation percentage scale from 0 (plant completely infected) to 100 (healthy plant).

[2] = tested on: Puccinia recondita; assay: Preventive fungicidal activity (5 days) against Puccinia recondita on wheat; conditions: for P5 activity NT (parts developed during the test) / P5 activity T (parts treated directly with the products): wheat Salgemma, inoculation 5 days after spraying, reduction of diseased leaf area vs non-treated
Procedure: Determination of the Preventive Fungicidal Activity (5 Days) Against Puccinia recondita on Wheat
Leaves of wheat plants of the Salgemma variety, grown in pots in a conditioned environment at 20° C. and 70% of Relative Humidity (RH) were treated by spraying both sides of the leaves with the compound under examination (see Table 4 hereunder) dispersed in a hydroacetone solution at 20% by volume of acetone.
After remaining 5 days in a conditioned environment, the plants were sprayed on both sides of the leaves with an aqueous suspension of conidia of Puccinia recondita (2 mg of inoculum per 1 ml of solution for infection).
After spraying, the plants were kept in a humidity-saturated environment at a temperature ranging from 18 to 24° C. for the incubation period of the fungus (1 day).
At the end of this period, the plants were put in a greenhouse with a relative humidity (RH) of 70% and at a temperature of 18-24° C. for 14 days.
At the end of this period, the external symptoms of the pathogen appeared and it was therefore possible to proceed with the visual evaluation of the intensity of the infection, both on the parts treated directly with the products (T) and on the parts developed during the implementation of the test (NT).
The fungicidal activity is expressed as a percentage of the reduction, with respect to non-treated seedlings (comparison), in the area of the leaf affected by the disease (100=full effectiveness; 0=zero effectiveness).

[3] = tested on: Plasmopara viticola; assay: Preventive activity (7 days) against Plasmopara viticola on vines; conditions: vine Merlot, inoculation 7 days after treatment, reduction of diseased leaf area vs non-treated
Procedure: Determination of the Preventive Activity (7 Days) of the Compounds Having Formula (I) Against Plasmopara viticola on Vines
Leaves of vine plants of the Merlot variety, grown in pots, in a conditioned environment, (20±1° C., 70% of R.H.) were treated by spraying both sides with the compound under examination.
7 days after the treatment, the plants were inoculated with an aqueous suspension of spores of Plasmopara viticola (200,000 spores/cc) by spraying both sides of the leaves with a compressed air gun.
After remaining 24 hours in a humidity-saturated environment, at 21° C. the plants were transferred for an incubation period (7 days) in a conditioned environment at 70% of R H. and at 24° C.
At the end of this period, the external symptoms of the pathogen appeared and it was therefore possible to proceed with the evaluation of the intensity of the infection.
The fungicidal activity was expressed as the reduction percentage, with respect to non-treated seedlings, in the area of the leaf affected by the disease (100=full effectiveness; 0=zero effectiveness).

## CC1(C)CC(NC(=O)c2cccc(NC=O)c2O)CC(C)(C)C1 [CR1, 3-formylamino-2-hydroxy-N-(3,3,5,5-tetramethylcyclohexyl)benzamide, reference compound]
[1]; 125 ppm
  P7 activity: 5%
[1]; 250 ppm
  P7 activity: 15%
[2]; 125 ppm
  P5 activity NT (parts developed during the test): 35%
  P5 activity T (parts treated directly with the products): 50%
[2]; 250 ppm
  P5 activity NT (parts developed during the test): 50%
  P5 activity T (parts treated directly with the products): 65%
[3]; 30 ppm
  P7 activity: 50%
[3]; 125 ppm
  P7 activity: 65%

## CC(C)C(=O)OCOc1c(NC=O)cccc1C(=O)NC1CC(C)(C)CC(C)(C)C1 [Compound 1, 3-formylamino-2-[(2-methyl-propanoyl-oxy)methoxy]-N-(3,3,5,5-tetramethylcyclohexyl)benzamide]
[1]; 125 ppm
  P7 activity: 75%
[1]; 250 ppm
  P7 activity: 80%
[2]; 125 ppm
  P5 activity NT (parts developed during the test): 60%
  P5 activity T (parts treated directly with the products): 70%
[2]; 250 ppm
  P5 activity NT (parts developed during the test): 65%
  P5 activity T (parts treated directly with the products): 75%
[2]; dosage of 250 ppm, T/NT not specified
  fungicidal activity (full activity): 100%
[3]; 30 ppm
  P7 activity: 100%
[3]; 125 ppm
  P7 activity: 100%

## CC(C)C(=O)OCOc1c(C(=O)NC2CC(C)(C)CC(C)(C)C2)cccc1N(C=O)COC(=O)C(C)C [Compound 4, 3-(N′-formyl-N′-[(2-methylpropanoyl-oxy)methyl]amino)-2-[(2-methylpropanoyloxy)methoxy]-N-(3,3,5,5-tetramethylcyclohexyl)-benzamide]
[2]; 125 ppm
  P5 activity NT (parts developed during the test): 65%
  P5 activity T (parts treated directly with the products): 70%
[2]; 250 ppm
  P5 activity NT (parts developed during the test): 70%
  P5 activity T (parts treated directly with the products): 80%
[3]; 30 ppm
  P7 activity: 100%
[3]; 125 ppm
  P7 activity: 100%
